Patent US9023864B2, “Indole derivatives as CRTH2 receptor antagonists” (Merck Sharp & Dohme Corp., priority 2009, dated 2015)

What follows are compounds tested against T1, hCRTH2 (Homo sapiens, UniProt Q9Y5Y4) (assay: Radioligand binding assay ([3H]PGD2 competition, membranes from HEK-hCRTH2 cell line)). Conditions: 0.7 nM [3H]PGD2, membrane protein from HEK-hCRTH2 cell line, 60 min at room temperature; values given as ranges.
T1 construct: expressed in transfected cells; host or cells: HEK cell line expressing hCRTH2 (HEK-hCRTH2); membranes
T1 sequence (Q9Y5Y4 1-395): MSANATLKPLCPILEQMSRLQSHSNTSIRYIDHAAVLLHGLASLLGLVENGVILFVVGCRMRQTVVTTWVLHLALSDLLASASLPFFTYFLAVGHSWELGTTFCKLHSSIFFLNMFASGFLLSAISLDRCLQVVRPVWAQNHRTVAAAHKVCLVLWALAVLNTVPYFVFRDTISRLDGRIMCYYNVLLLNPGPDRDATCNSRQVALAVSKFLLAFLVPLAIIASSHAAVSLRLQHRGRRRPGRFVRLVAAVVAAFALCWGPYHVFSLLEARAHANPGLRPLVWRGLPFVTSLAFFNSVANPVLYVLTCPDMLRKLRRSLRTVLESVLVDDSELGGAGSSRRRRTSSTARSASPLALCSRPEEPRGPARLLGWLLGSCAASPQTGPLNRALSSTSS
Experimental: Radioligand Binding Assay.
Radioligand binding assays were performed at room temperature in 10 mM HEPES/KOH pH 7.4, 1 mM EDTA containing 10 mM MnCl2 and 0.7 nM [^3H]PGD2 (NEN, 171 Ci mmol^−1), in a final volume of 0.2 ml. Competing ligands were diluted in dimethylsulfoxide (Me2SO) that was kept constant at 1% (v/v) of the final incubation volume. The reaction was initiated by the addition of 8-20 μg of membrane protein prepared from a HEK-hCRTH2 cell line. Total and non-specific binding were determined in the absence and the presence of 10 μM PGD2, respectively. Under these conditions, specific binding (total minus non-specific) of the radioligand to the receptor reached equilibrium within 50 min and was stable up to 180 min. The reaction was routinely conducted for 60 min at room temperature and terminated by rapid filtration through prewetted Unifilters GF/C (Packard), using a Tomtec MachIII semi-automated harvester (for HEK-hCRTH2). The filters were then washed with 4 ml of the same buffer and residual radioligand bound to the filter was determined by liquid scintillation counting following equilibration in 25 μl Ultima Gold F™ (Unifilter) (Packard). The Ki (in nM) values for representative compounds of the present invention are as follows: ≦5: Examples 3.1, 5.1, 6.1, 7.1, 8.1/8A, 9.1, 26, 27.1, 28.1, 29.1, 30, 31.1, 31.3, 32.1, 32.4, 33.1, 34.1, 36.1, 38.1, 39, 40, 41; >5 and ≦10: Examples, 4, 5.3, 29.2; >10 and ≦50: Examples 1, 10, 14, 21, 22, 25, 31.4, 32.3, 35, 36.2, 37; >50 and ≦100: Examples 2, 5.4, 6.2, 27.2, 28.2; >100: Examples 3.2, 5.2, 7.2, 8.2, 9.2, 11, 12, 13, 15, 16, 17, 18, 19, 20, 23, 24, 31.2, 32.2, 33.2, 34.2, 38.2.

| Ki [nM] | SMILES |
| --- | --- |
| > 100 | CS(=O)(=O)NCCCCc1cn(C2CCc3c(CC(=O)O)c4ccccc4n3C2)nn1 (stereo not drawn) [Example 11, {7-[4-(4-Methanesulfonylamino-butyl)-[1,2,3]triazol-1-yl]-6,7,8,9-tetrahydropyrido[1,2-α]indol-10-yl}-acetic acid] |
| > 100 | CC(C)C(O)c1cn(C2CCc3c(CC(=O)O)c4ccccc4n3C2)nn1 (stereo not drawn) [Example 12, {7-[4-(1-Hydroxy-2-methyl-propyl)-[1,2,3]triazol-1-yl]-6,7,8,9-tetrahydropyrido[1,2-α]indol-10-yl}-acetic acid] |
| 10 to 50 | CC(c1ccccc1)c1cnnn1C1CCc2c(CC(=O)O)c3cccc(F)c3n2C1 (single isomer, unassigned) [Example 32.3, {4-Fluoro-7-[5-(1-phenyl-ethyl)-[1,2,3]triazol-1-yl]-6,7,8,9-tetrahydropyrido[1,2-α]indol-10-yl}-acetic acid] |
| > 100 | O=C(O)Cc1c2n(c3ccccc13)CC(n1nncc1Cc1ccccc1)CC2 (single isomer, unassigned) [Example 3.2, [7-(5-Benzyl-[1,2,3]triazol-1-yl)-6,7,8,9-tetrahydropyrido[1,2-α]indol-10-yl]-acetic acid] |
| 50 to 100 | CC(O)(c1ccc(F)cc1)c1cnnn1C1CCc2c(CC(=O)O)c3ccccc3n2C1 (single isomer, unassigned) [Example 5.4, (7-{5-[1-(4-Fluoro-phenyl)-1-hydroxy-ethyl]-[1,2,3]triazol-1-yl}-6,7,8,9-tetrahydropyrido[1,2-α]indol-10-yl)-acetic acid] |
| > 100 | CS(=O)(=O)c1ccc(-c2cn(C3CCc4c(CC(=O)O)c5ccccc5n4C3)nn2)cc1 (stereo not drawn) [Example 15, {7-[4-(4-Methanesulfonyl-phenyl)-[1,2,3]triazol-1-yl]-6,7,8,9-tetrahydropyrido[1,2-α]indol-10-yl}-acetic acid] |
| ≤ 5 | O=C(O)Cc1c2n(c3ccccc13)CC(n1nncc1Cc1ccc(F)cc1F)CC2 (single isomer, unassigned) [Example 40, {7-[5-(2,4-difluorobenzyl)-1H-1,2,3-triazol-1-yl]-6,7,8,9-tetrahydropyrido[1,2-a]-indol-10-yl}acetic acid] |
| ≤ 5 | CC(c1ccccc1)c1cnnn1C1CCc2c(CC(=O)O)c3cccc(F)c3n2C1 (single isomer, unassigned) [Example 32.1, {4-Fluoro-7-[5-(1-phenyl-ethyl)-[1,2,3]triazol-1-yl]-6,7,8,9-tetrahydropyrido[1,2-α]indol-10-yl}-acetic acid] |
| ≤ 5 | CC(O)(c1ccc(F)cc1)c1cnnn1C1CCc2c(CC(=O)O)c3cccc(F)c3n2C1 (single isomer, unassigned) [Example 31.1] |
| > 100 | CC(C)(C)OC(=O)N1CCC(c2cnnn2C2CCc3c(CC(=O)O)c4ccccc4n3C2)CC1 (stereo not drawn) [Example 23, 4-[3-(10-Carboxymethyl-6,7,8,9-tetrahydropyrido[1,2-α]indol-7-yl)-3H-[1,2,3]triazol-4-yl]-piperidine-1-carboxylic acid tert-butyl ester] |
| > 100 | CN(C)c1ccc(-c2cn(C3CCc4c(CC(=O)O)c5ccccc5n4C3)nn2)cc1 (stereo not drawn) [Example 19, {7-[4-(4-Dimethylamino-phenyl)-[1,2,3]triazol-1-yl]-6,7,8,9-tetrahydropyrido[1,2-α]indol-10-yl}-acetic acid] |
| ≤ 5 | O=C(O)Cc1c2n(c3c(F)cccc13)CC(n1nncc1Cc1ccc(F)cc1F)CC2 (single isomer, unassigned) [Example 41, {7-[5-(2,4-difluorobenzyl)-1H-1,2,3-triazol-1-yl]-4-fluoro-6,7,8,9-tetrahydro-pyrido[1,2-a]indol-10-yl}acetic acid] |
| > 100 | O=C(O)Cc1c2n(c3ccccc13)CC(n1nncc1-c1ccc(F)cc1)CC2 (stereo not drawn) [Example 20, {7-[5-(4-Fluoro-phenyl)-[1,2,3]triazol-1-yl]-6,7,8,9-tetrahydropyrido[1,2-α]indol-10-yl}-acetic acid] |
| 10 to 50 | O=C(O)Cc1c2n(c3ccccc13)CC(n1cc(COc3ccccc3)nn1)CC2 (stereo not drawn) [Example 14, [7-(4-Phenoxymethyl-[1,2,3]triazol-1-yl)-6,7,8,9-tetrahydropyrido[1,2-α]indol-10-yl]-acetic acid] |
| ≤ 5 | O=C(O)Cc1c2n(c3c(F)cccc13)C[C@H](n1nncc1Cc1ccc(F)cc1)CC2 [Example 8.1, {(7R)-4-Fluoro-7-[5-(4-fluorobenzyl)-1H-[1,2,3]triazol-1-yl]-6,7,8,9-tetrahydropyrido[1,2-a]-indol-10-yl}-acetic acid] |
| 10 to 50 | O=C(O)Cc1c2n(c3ccccc13)CC(n1nncc1C(O)c1ccc(Br)cc1)CC2 (stereo not drawn) [Example 22, (7-{5-[(4-Bromo-phenyl)-hydroxy-methyl]-[1,2,3]triazol-1-yl}-6,7,8,9-tetrahydropyrido[1,2-α]indol-10-yl)-acetic acid] |
| > 100 | O=C(O)Cc1c2n(c3c(F)cccc13)CC(n1nncc1Cc1ccccc1)CC2 (single isomer, unassigned) [Example 7.2, [7-(5-Benzyl-[1,2,3]triazol-1-yl)-4-fluoro-6,7,8,9-tetrahydropyrido[1,2-α]indol-10-yl]-acetic acid] |
| > 100 | CC(O)(c1ccccc1)c1cn(C2CCc3c(CC(=O)O)c4ccccc4n3C2)nn1 (stereo not drawn) [Example 13, {7-[4-(1-Hydroxy-1-phenyl-ethyl)-[1,2,3]triazol-1-yl]-6,7,8,9-tetrahydropyrido[1,2-α]indol-10-yl}-acetic acid] |
| 10 to 50 | Cc1c(Cc2ccc(F)cc2)nnn1C1CCc2c(CC(=O)O)c3cccc(F)c3n2C1 (racemic) [Example 37, {4-Fluoro-7-[4-(4-fluorobenzyl)-5-methyl-1H-1,2,3-triazol-1-yl]-6,7,8,9-tetrahydropyrido[1,2-α]indol-10-yl}acetic acid] |
| 10 to 50 | Cc1nnn(C2CCc3c(CC(=O)O)c4cccc(F)c4n3C2)c1Cc1ccc(F)cc1 (single isomer, unassigned) [Example 36.2, {4-Fluoro-7-[5-(4-fluorobenzyl)-4-methyl-1H-1,2,3-triazol-1-yl]-6,7,8,9-tetrahydropyrido[1,2-a]indol-10-yl}acetic acid] |
| ≤ 5 | O=C(O)Cc1c2n(c3ccccc13)C[C@H](n1nncc1C(c1ccc(F)cc1)c1ccc(F)cc1)CC2 [Example 30, ((R)-7-{5-[Bis-(4-fluoro-phenyl)-methyl]-[1,2,3]triazol-1-yl}-6,7,8,9-tetrahydropyrido[1,2-α]indol-10-yl)-acetic acid] |
| 50 to 100 | COc1ccc(-c2cn(C3CCc4c(CC(=O)O)c5ccccc5n4C3)nn2)cc1 (stereo not drawn) [Example 2, {7-[4-(4-Methoxy-phenyl)-[1,2,3]triazol-1-yl]-6,7,8,9-tetrahydropyrido[1,2-α]indol-10-yl}-acetic acid] |
| 50 to 100 | O=C(O)Cc1c2n(c3ccccc13)CC(n1nncc1C(O)(c1ccc(F)cc1)c1ccc(F)cc1)CC2 (single isomer, unassigned) [Example 27.2] |
| ≤ 5 | O=C(O)Cc1c2n(c3c(F)cccc13)CC(n1nncc1Cc1ccccc1)CC2 (single isomer, unassigned) [Example 7.1, [7-(5-Benzyl-[1,2,3]triazol-1-yl)-4-fluoro-6,7,8,9-tetrahydropyrido[1,2-α]indol-10-yl]-acetic acid] |
